Assay results reported in PubChem BioAssay AID330 (DTP/NCI, 2004).
“And” between values parts separate entries of the source, which are not always exact repeats. Equal values may be shown once. Inconclusive results and toxic doses are left out. The calls were made as follows: active = survival T/C of 150% or more; inactive = T/C below 125% in these data. Numbered stars: 1 amine (or outer) side, 2 acyl side, 3 side chain; on linkers, the order of the positions; unused ones are H or OH. Bridge positions count the residues as written; N and C are the ends. Square brackets hold non-standard residues; d marks the D form. Peptide text beside a SMILES is read from it. ξ: configuration not given here. X15 = O=C(/C(=C/c1c[nH]c2ccccc12)N[*:1])[*:2]; X16 = CC(c1c[nH]c2ccccc12)C(N[*:1])C(=O)[*:2]; βAsp = O=C(O)[CH](CC(=O)[*:2])N[*:1]; ξLeu(3ξ-OH) = CC(C)C(O)C(N)C(=O)O; X14 = O=C(C1C(O)CCN1[*:1])[*:2]

Test system: P388 leukemia ip, CD2F1 mice, survival T/C
Assay: NCI In Vivo Anticancer Drug Screen. Data for tumor model P388 Leukemia (intraperitoneal) in CD2F1 (CDF1) mice
Conditions: endpoint: median survival time, higher = longer survival
Procedure, shortened: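 Mice carrying the transplanted tumor received test compound or vehicle. Survival was recorded in each group, and the value is the treated-group measurement divided by that of the vehicle-treated control group.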

[1] = dose: 100.0 mg/kg/injection, schedule: Q01DX009 (ip), vehicle: Klucel (hydroxypropylcellulose) (HPC)
[2] = dose: 50.0 mg/kg/injection, schedule: Q01DX005 (ip), vehicle: Klucel (hydroxypropylcellulose) (HPC)
[3] = dose: 100.0 mg/kg/injection, schedule: Q01DX005 (ip), vehicle: Klucel (hydroxypropylcellulose) (HPC)
[4] = dose: 200.0 mg/kg/injection, schedule: Q01DX005 (ip), vehicle: Klucel (hydroxypropylcellulose) (HPC)
[5] = dose: 50.0 mg/kg/injection, schedule: Q04DX003 (ip), vehicle: Klucel (hydroxypropylcellulose) (HPC)
[6] = dose: 100.0 mg/kg/injection, schedule: Q01DX009 (ip), vehicle: saline with Tween-80
[7] = dose: 200.0 mg/kg/injection, schedule: Q01DX009 (ip), vehicle: saline with Tween-80
[8] = dose: 400.0 mg/kg/injection, schedule: Q01DX009 (ip), vehicle: saline with Tween-80
[9] = dose: 100.0 mg/kg/injection, schedule: Q04DX003 (ip), vehicle: saline with Tween-80
[10] = dose: 200.0 mg/kg/injection, schedule: Q04DX003 (ip), vehicle: saline with Tween-80
[11] = dose: 400.0 mg/kg/injection, schedule: Q04DX003 (ip), vehicle: saline with Tween-80
[12] = dose: 60.0 mg/kg/injection, schedule: Q01DX005 (ip), vehicle: saline with Tween-80
[13] = dose: 120.0 mg/kg/injection, schedule: Q01DX005 (ip), vehicle: saline with Tween-80
[14] = dose: 240.0 mg/kg/injection, schedule: Q01DX005 (ip), vehicle: saline with Tween-80
[15] = dose: 50.0 mg/kg/injection, schedule: Q01DX009 (ip), vehicle: saline with Tween-80
[16] = dose: 100.0 mg/kg/injection, schedule: Q01DX001 (ip), vehicle: Klucel (hydroxypropylcellulose) (HPC)
[17] = dose: 25.0 mg/kg/injection, schedule: Q01DX009 (ip), vehicle: saline with Tween-80
[18] = dose: 100.0 mg/kg/injection, schedule: Q04DX002 (ip), vehicle: saline with Tween-80
[19] = dose: 200.0 mg/kg/injection, schedule: Q04DX002 (ip), vehicle: saline with Tween-80

Measured: T/C

CN(C)/N=C/c1ccc(O)cc1
inactive: dose: 50.0 mg/kg/injection, schedule: Q01DX009 (ip), vehicle: Klucel (hydroxypropylcellulose) (HPC) 118 % of control | [1] 100 % of control and 101 % of control | dose: 200.0 mg/kg/injection, schedule: Q01DX009 (ip), vehicle: Klucel (hydroxypropylcellulose) (HPC) 102 % of control and 114 % of control

CC(C)CC(C(=O)O)N(C)C(=O)OC(C)(C)C (configuration not stated)
inactive: [2] 101 % of control | [3] 93 % of control | [4] 99 % of control

CCOP(=O)(O)C1CCCC(C)[N-]1.CCOP(=O)(O)C1CCCC(C)[N-]1.[Fe+2] (configuration not stated)
inactive: dose: 25.0 mg/kg/injection, schedule: Q04DX003 (ip), vehicle: Klucel (hydroxypropylcellulose) (HPC) 101 % of control | [5] 95 % of control | dose: 100.0 mg/kg/injection, schedule: Q04DX003 (ip), vehicle: Klucel (hydroxypropylcellulose) (HPC) 100 % of control and 89 % of control

Nc1n[nH]c(=S)n1-c1ccc(Cl)cc1
inactive: [6] 115 % of control | [7] 120 % of control | [8] 120 % of control

O=C(CCN1CCC23c4c5ccc(O)c4OC2C(O)C=CC3C1C5)c1ccccc1 (configuration not stated)
inactive: [2] 88 % of control | [3] 99 % of control

CC1NC(=O)C(C(C)O)NC(=O)C(NC(=O)C(CO)NC(=O)CC(N)C(=O)O)C(C)OC(=O)C2C(O)CCN2C(=O)C(C(O)C(C)C)NC(=O)C(C(C)c2c[nH]c3ccccc23)NC(=O)/C(=C/c2c[nH]c3ccccc23)NC(=O)C2C(O)CCN2C(=O)CNC1=O (configuration not stated) (βAsp-STTAG[X14][X15][X16][ξLeu(3ξ-OH)][X14]; ester 2-C; configuration not given here)
inactive: [6] 105 % of control | [7] 89 % of control | [8] 91 % of control

CC(C)C(NC(=O)C(C)N(C)C)C(=O)N1CCC2Oc3ccc(cc3)/C=C\NC(=O)C(Cc3ccccc3)NC(=O)C21 (configuration not stated)
inactive: [9] 97 % of control | [10] 95 % of control | [11] 96 % of control

O=C(CNC(=O)Nc1cccc([N+](=O)[O-])c1)NNC(=O)Nc1ccccc1F
inactive: [12] 101 % of control | [13] 101 % of control | [14] 99 % of control

O=C1CC(c2ccccc2)Oc2cc(O)cc(O)c21 (configuration not stated)
inactive: dose: 12.5 mg/kg/injection, schedule: Q01DX009 (ip), vehicle: Klucel (hydroxypropylcellulose) (HPC) 98 % of control | dose: 25.0 mg/kg/injection, schedule: Q01DX009 (ip), vehicle: Klucel (hydroxypropylcellulose) (HPC) 98 % of control | dose: 50.0 mg/kg/injection, schedule: Q01DX009 (ip), vehicle: other 110 % of control | [1] 98 % of control | dose: 200.0 mg/kg/injection, schedule: Q01DX009 (ip), vehicle: other 102 % of control | dose: 400.0 mg/kg/injection, schedule: Q01DX009 (ip), vehicle: other 102 % of control

CNC(=O)c1ccccc1CC1(O)CCCc2ccccc21 (configuration not stated)
inactive: [15] 101 % of control | [6] 96 % of control | [7] 96 % of control

C=C1C(=O)OC2/C=C(\C)CC/C=C(\C)CC(OC(=O)/C(=C/C)CO)C12 (configuration not stated)
inactive: dose: 25.0 mg/kg/injection, schedule: Q01DX001 (ip), vehicle: Klucel (hydroxypropylcellulose) (HPC) 101 % of control | dose: 50.0 mg/kg/injection, schedule: Q01DX001 (ip), vehicle: Klucel (hydroxypropylcellulose) (HPC) 96 % of control | [16] 110 % of control

C=C(C)C(=O)OC1CCCC2C(=C)C(=O)OC12 (configuration not stated)
inactive: dose: 60.0 mg/kg/injection, schedule: Q01DX005 (ip), vehicle: Klucel (hydroxypropylcellulose) (HPC) 105 % of control | dose: 120.0 mg/kg/injection, schedule: Q01DX005 (ip), vehicle: Klucel (hydroxypropylcellulose) (HPC) 100 % of control | dose: 240.0 mg/kg/injection, schedule: Q01DX005 (ip), vehicle: Klucel (hydroxypropylcellulose) (HPC) 107 % of control

CCCCOC1OCN(Cc2ccccc2)CC1(C)C (configuration not stated)
inactive: [15] 111 % of control | [6] 123 % of control | [7] 122 % of control

NCCN1C(=O)C2C3CCC(O3)C2C1=O (configuration not stated)
inactive: [12] 96 % of control | [13] 98 % of control | [14] 107 % of control

O=S1(=O)C2C=CCCC1C=C2 (configuration not stated)
inactive: dose: 12.5 mg/kg/injection, schedule: Q01DX009 (ip), vehicle: saline 92 % of control | dose: 25.0 mg/kg/injection, schedule: Q01DX009 (ip), vehicle: saline 96 % of control | dose: 50.0 mg/kg/injection, schedule: Q01DX009 (ip), vehicle: saline 100 % of control | dose: 200.0 mg/kg/injection, schedule: Q01DX009 (ip), vehicle: saline 100 % of control

COC(=O)Cc1[nH]ncc1C(=O)OC
inactive: dose: 60.0 mg/kg/injection, schedule: Q01DX005 (ip), vehicle: saline 106 % of control | dose: 120.0 mg/kg/injection, schedule: Q01DX005 (ip), vehicle: saline 103 % of control | dose: 240.0 mg/kg/injection, schedule: Q01DX005 (ip), vehicle: saline 96 % of control

CCOC(=O)/N=[N+](\[O-])c1ccc([N+](=O)[O-])cc1
inactive: [16] 95 % of control

CCCNCC(O)c1cc(C(F)(F)F)nc2c(C(F)(F)F)cccc12 (configuration not stated)
inactive: dose: 12.5 mg/kg/injection, schedule: Q01DX009 (ip), vehicle: saline with Tween-80 99 % of control | [17] 95 % of control | [15] 107 % of control

CCN(CC)S(=O)(=O)c1ccc(-c2cc(Cl)c3cc(S(=O)(=O)F)ccc3n2)cc1
inactive: [9] 100 % of control | [10] 100 % of control | [11] 95 % of control

CCCC(C)c1ccc(OCc2ccc(C)cc2)cc1 (configuration not stated)
inactive: [15] 114 % of control | [6] 91 % of control | [7] 95 % of control

O=C1c2ccccc2SCC12OC2c1ccc(Cl)cc1 (configuration not stated)
inactive: [18] 95 % of control | [19] 90 % of control

CC1CC2OC(=O)CC2C(O)C2(C)C(OC(C)(C)C)CCC12 (configuration not stated)
inactive: [2] 100 % of control | [3] 90 % of control

CC1CCC2(NC1)OC1CC3C4CCC5CC(OC6OC(CO)C(OC7OC(CO)C(O)C(OC8OCC(O)C(O)C8O)C7OC7OC(CO)C(O)C(O)C7O)C(O)C6O)CCC5(C)C4CCC3(C)C1C2C (configuration not stated)
inactive: dose: 3.12 mg/kg/injection, schedule: Q04DX003 (ip), vehicle: Klucel (hydroxypropylcellulose) (HPC) 102 % of control | dose: 6.25 mg/kg/injection, schedule: Q04DX003 (ip), vehicle: Klucel (hydroxypropylcellulose) (HPC) 100 % of control | dose: 12.5 mg/kg/injection, schedule: Q04DX003 (ip), vehicle: Klucel (hydroxypropylcellulose) (HPC) 100 % of control and 91 % of control | [5] 89 % of control and 93 % of control

COc1ccc(/C=C/C(=O)c2ccccc(=O)c2O)c(OC)c1OC
inactive: dose: 25.0 mg/kg/injection, schedule: Q01DX005 (ip), vehicle: Klucel (hydroxypropylcellulose) (HPC) 105 % of control | [2] 99 % of control | [3] 109 % of control | [4] 108 % of control

O=[N+]([O-])c1ccc(-c2nc(/C=N/N3CCCCC3)cs2)o1
inactive: [17] 100 % of control | [15] 100 % of control | [6] 99 % of control

CN(C)c1nc(NC=O)nc(N(C)C)n1
inactive: dose: 50.0 mg/kg/injection, schedule: Q04DX002 (ip), vehicle: saline with Tween-80 99 % of control | [18] 99 % of control | [19] 100 % of control

N#CSC/C(=N\Nc1ccc([N+](=O)[O-])cc1[N+](=O)[O-])c1ccccc1
inactive: dose: 50.0 mg/kg/injection, schedule: Q04DX003 (ip), vehicle: saline with Tween-80 100 % of control | [9] 95 % of control | [10] 113 % of control
